Experimental data published in EP1818058A2, “TREATMENT OF MMP-MEDIATED DERMATOLOGICAL DISEASES WITH PEMIROLAST” (Astion Pharma A/S, priority 2006, dated 2007).
pIC50: −log10 of the molar value.

Assays:
[1] = tested on: acne vulgaris; assay: Case of treatment of acne vulgaris; assay type: in vivo, person
Description: A person was suffering from acne vulgaris characterised by comedones and some inflammatory lesions. They had previously regularly used a 5% benzoyl peroxide cream to treat the condition. During a flare up of the condition they applied a 5.0% aqueous solution of Pemirolast (potassium salt) once daily for four weeks to the areas affected. […] The treatment was followed and assessed by a physician.

[2] = tested on: TNF-α; assay: Cytokine production, LPS induced human PBMC; assay type: cell-based; details: concentration giving 50 % inhibition, read-out: Concentration of Pemirolast
Description: (§1) The inhibition of Pemirolast on cytokine production was determined using the assay "LPS induced human PBMC".

[3] = tested on: IL-1α; assay: Cytokine production, LPS induced human PBMC; assay type: cell-based; details: statement in words only, no value given
Description: as §1

[4] = biological target: MMP-3 (Homo sapiens, UniProt P08254); assay: MMP enzyme assay (fluorogenic Mca peptide substrate, MDS Pharma Services); assay type: biochemical; details: concentration giving 50 % inhibition; Human recombinant MMP-3; read-out: Concentration of Pemirolast
Chain of MMP-3 (P08254 100-477): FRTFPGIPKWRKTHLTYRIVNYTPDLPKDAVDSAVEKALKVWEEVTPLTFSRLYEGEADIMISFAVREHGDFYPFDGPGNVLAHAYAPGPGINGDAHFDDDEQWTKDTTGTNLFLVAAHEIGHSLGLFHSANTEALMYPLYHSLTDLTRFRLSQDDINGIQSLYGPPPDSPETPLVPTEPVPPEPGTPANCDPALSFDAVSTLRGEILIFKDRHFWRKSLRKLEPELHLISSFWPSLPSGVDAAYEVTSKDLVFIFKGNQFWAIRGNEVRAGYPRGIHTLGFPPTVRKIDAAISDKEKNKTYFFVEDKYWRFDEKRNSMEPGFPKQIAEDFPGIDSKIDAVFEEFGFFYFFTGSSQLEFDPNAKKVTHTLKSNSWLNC
Description: (§2) The inhibitory effect of Pemirolast on human MMP's and cytokines were determined by enzyme assays carried out by MDS Pharma Services.
(§3) The inhibition of MMP's can be determined according to the test methods described by Knight CG, Willenbrock F, Murphy G (A novel coumarin-labelled peptide for sensitive continuous assays of the matrix metalloproteinases, FEBS Lett. 1992 Jan 27;296(3):263-6); Johnson LL, Dyer R, Hupe DJ (Matrix metalloproteinases, Curr Opin Chem Biol. 1998 Aug;2(4):466-71); and Olson MW, Gervasi DC, Mobashery S, Fridman R (Kinetic analysis of the binding of human matrix metalloproteinase-2 and -9 to tissue inhibitor of metalloproteinase (TIMP)-1 and TIMP-2, J Biol Chem. 1997 Nov 21;272(47):29975-83). The methods employ Human rheumatoid synovial fibroblast (MMP-1) and Human recombinant (MMP-2 and MMP-3) and Human recombinant (E.coli) (MMP-7) as the MMP source. The substrate is Mca-Pro-Leu-Gly-Leu-Dpa-Ala-Arg-NH2. The enzymatic reaction is based on the conversion of Mca-Pro-Leu-Gly-Leu-Dpa-Ala-Arg to Mca-Pro-Leu-Gly + Leu-Dpa-Ala-Arg-NH2, where Mca-Pro-Leu-Gly is quantified using spectrofluorimetric quantitation. As reference compounds are employed TIMP-1 and TIMP-2. Such methods are commercially available at MDS Pharma Services.

[5] = biological target: T1, MMP-1 (Homo sapiens, UniProt P03956); assay: as above; assay type: biochemical; details: concentration giving 50 % inhibition; MMP-1 from Human rheumatoid synovial fibroblast; read-out: Concentration of Pemirolast
T1 construct: The methods employ Human rheumatoid synovial fibroblast (MMP-1); endogenous in cells; host or cells: Human rheumatoid synovial fibroblast
T1 sequence (P03956 100-469): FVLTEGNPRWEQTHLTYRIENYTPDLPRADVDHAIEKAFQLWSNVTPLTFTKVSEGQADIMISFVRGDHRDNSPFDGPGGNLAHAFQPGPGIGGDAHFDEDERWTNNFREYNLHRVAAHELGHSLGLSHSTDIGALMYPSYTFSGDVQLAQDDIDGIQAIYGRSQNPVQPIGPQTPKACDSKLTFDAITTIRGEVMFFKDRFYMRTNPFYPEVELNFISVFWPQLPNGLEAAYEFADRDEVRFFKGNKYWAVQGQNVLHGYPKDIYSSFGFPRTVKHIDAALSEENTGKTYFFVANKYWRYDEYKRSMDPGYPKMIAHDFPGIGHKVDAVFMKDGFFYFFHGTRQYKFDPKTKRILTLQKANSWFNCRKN
Description: as §2, §3

[6] = biological target: T2, MMP-2 (Homo sapiens, UniProt P08253); assay: as above; assay type: biochemical; details: concentration giving 50 % inhibition; Human recombinant MMP-2; read-out: Concentration of Pemirolast
T2 sequence (P08253 110-660): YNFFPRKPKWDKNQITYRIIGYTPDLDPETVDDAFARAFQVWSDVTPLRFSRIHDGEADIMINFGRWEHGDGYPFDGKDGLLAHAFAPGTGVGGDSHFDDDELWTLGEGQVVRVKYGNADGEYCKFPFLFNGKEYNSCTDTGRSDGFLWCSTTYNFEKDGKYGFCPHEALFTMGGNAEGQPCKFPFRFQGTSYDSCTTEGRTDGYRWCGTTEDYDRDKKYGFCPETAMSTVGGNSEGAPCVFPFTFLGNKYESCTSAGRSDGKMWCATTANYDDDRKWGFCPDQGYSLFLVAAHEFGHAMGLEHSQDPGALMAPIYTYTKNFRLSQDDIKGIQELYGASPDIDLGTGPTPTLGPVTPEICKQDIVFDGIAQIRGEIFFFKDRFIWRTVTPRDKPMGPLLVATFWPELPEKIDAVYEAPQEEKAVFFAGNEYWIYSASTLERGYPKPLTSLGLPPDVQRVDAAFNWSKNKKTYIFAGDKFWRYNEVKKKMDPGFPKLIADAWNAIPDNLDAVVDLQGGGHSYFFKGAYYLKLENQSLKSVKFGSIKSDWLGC
Description: as §2, §3

[7] = biological target: T3, MMP-7 (Homo sapiens, UniProt P09237); assay: as above; assay type: biochemical; details: concentration giving 50 % inhibition; Human recombinant (E.coli) MMP-7; read-out: Concentration of Pemirolast
T3 construct: host or cells: E. coli
T3 sequence (P09237 95-267): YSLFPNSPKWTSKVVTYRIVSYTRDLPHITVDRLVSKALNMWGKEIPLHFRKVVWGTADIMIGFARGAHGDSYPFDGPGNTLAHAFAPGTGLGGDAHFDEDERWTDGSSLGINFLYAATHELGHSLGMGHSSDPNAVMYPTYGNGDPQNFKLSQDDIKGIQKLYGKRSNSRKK
Description: as §2, §3

[8] = tested on: arachidonic acid-induced ear-inflammation; assay: Arachidonic acid-induced ear-inflammation test in mice; assay type: in vivo, female BALB/cA mice; details: intraperitoneally 30 minutes before arachidonic acid on the right ear
Description: The anti-inflammatory potential of Pemirolast can be tested in "arachidonic acid-induced ear-inflammation test in mice", a commonly employed method for screening and evaluation of antiinflammatory drugs. Dexamethasone was employed as reference compound.
The study can be performed in female BALB/cA mice from M & B A/S, DK-8680 Ry. The test substances (various concentration of Pemirolast dissolved in aqueous solutions) and the reference compound are administered intraperitoneally in volumes of 20 ml per kg body weight 30 minutes before application of arachidonic acid to the ear. All groups are then treated with 20 µl arachidonic acid, 100 mg/ml in acetone, on the right ear. One hour after the application of arachidonic acid the mice are sacrificed, the ears cut from the tip with a punch biopsy knife (8 mm diameter) and weighed. Mean weights and standard deviations are calculated. Relative ear oedema is assessed as the weight difference between right and left ear of each mouse expressed as percent of the left ear. Percent inhibition of the relative ear oedema compared with the vehicle treated groups is calculated for the test substance and reference compound treated groups. […]

[9] = person, 5.0% aqueous solution of Pemirolast (potassium salt) once daily for four weeks on affected areas

Row | pIC50 [2] | pIC50 [4] | pIC50 [5] | pIC50 [6] | pIC50 [7] | Structure (SMILES) | inflamed area surrounding the lesion [1, 9] | inflammatory lesions [1, 9] | inhibition of IL-1α [3] | inflammatory reaction in the arachidionic acid treated ear [8] | reddened inflamed area ([1]; same patient, usual previous treatment with 5% benzoyl peroxide cream)
1 | 4.00 | 4.49 | 4.74 | 4.60 | 4.49 | Cc1cccn2c(=O)c(-c3nnn[nH]3)cnc12 [Pemirolast, 9-methyl-3-(1H-tetrazol-5-yl)-4H-pyrido[1,2-a]pyrimidin-4-one] | recessed without any noticeable scarring | completely recessed | inhibits | significantly prevented the inflammatory reaction | 
2 |  |  |  |  |  | O=C(OOC(=O)c1ccccc1)c1ccccc1 [benzoyl peroxide] |  |  |  |  | did not remove the reddened inflamed area
